Earlier results, collected in patent publication US20030068374A1, “Sustained release preparations of physiologically active compound hardly soluble in water and production process and use of the same” (priority 2000, published 2003).

Settings: in water, 18° C.

For [O]=[Zn] [zinc oxide], the solubility is given as 0.42 mg/100 ml.
